The supplement of paper PMC11482750
± gives the standard deviation of the averaged measurements.

Columns and labels:
Assay in all cases: control-subtracted net OSN firing rate; higher = stronger neuronal activation
S. hsui pb1a-like = tested on: S. hsui pb1a-like
Description: (§1)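 Dose-response single sensillum recordings from pb1a (D. melanogaster Canton-S) and pb1a-like (Scaptomyza) maxillary palp OSNs. Odorants were given at 10^-5 to 10^-2 vol/vol in mineral oil (γ-hexalactone in DMSO) as 1 s pulses. The read-out is the control-subtracted net spikes/s in a 0.5 s window.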

S. montana pb1a-like = tested on: S. montana pb1a-like
Description: as §1

S. flava pb1a-like = tested on: S. flava pb1a-like
Description: as §1

S. pallida pb1a-like = tested on: S. pallida pb1a-like
Description: as §1

Canton-S pb1a = tested on: Canton-S pb1a
Description: as §1

[1] = odorant dilution (vol/vol): 10^-2
[2] = odorant dilution (vol/vol): 10^-3
[3] = odorant dilution (vol/vol): 10^-4
[4] = odorant dilution (vol/vol): 10^-5

| SMILES | control-subtracted net OSN firing rate (S. hsui pb1a-like; [1]) | control-subtracted net OSN firing rate (S. hsui pb1a-like; [2]) | control-subtracted net OSN firing rate (S. hsui pb1a-like; [3]) | control-subtracted net OSN firing rate (S. hsui pb1a-like; [4]) | control-subtracted net OSN firing rate (S. montana pb1a-like; [1]) | control-subtracted net OSN firing rate (S. montana pb1a-like; [2]) | control-subtracted net OSN firing rate (S. montana pb1a-like; [3]) | control-subtracted net OSN firing rate (S. montana pb1a-like; [4]) | control-subtracted net OSN firing rate (S. flava pb1a-like; [1]) | control-subtracted net OSN firing rate (S. flava pb1a-like; [2]) | control-subtracted net OSN firing rate (S. flava pb1a-like; [3]) | control-subtracted net OSN firing rate (S. flava pb1a-like; [4]) | control-subtracted net OSN firing rate (S. pallida pb1a-like; [1]) | control-subtracted net OSN firing rate (S. pallida pb1a-like; [2]) | control-subtracted net OSN firing rate (S. pallida pb1a-like; [3]) | control-subtracted net OSN firing rate (S. pallida pb1a-like; [4]) | control-subtracted net OSN firing rate (Canton-S pb1a; [1]) | control-subtracted net OSN firing rate (Canton-S pb1a; [2]) | control-subtracted net OSN firing rate (Canton-S pb1a; [3]) | control-subtracted net OSN firing rate (Canton-S pb1a; [4]) |
| --- | --- | --- | --- | --- | --- | --- | --- | --- | --- | --- | --- | --- | --- | --- | --- | --- | --- | --- | --- | --- |
| C=CCN=C=S [allyl isothiocyanate] | 132 ± 49 spikes/s | 51.2 ± 27 spikes/s | 6.75 ± 6 spikes/s | -1 ± 12 spikes/s | 168 ± 26 spikes/s | 118 ± 33 spikes/s | 58.3 ± 35 spikes/s | 20 ± 9.4 spikes/s | 169 ± 40 spikes/s | 117 ± 38 spikes/s | 50 ± 28 spikes/s | 11.4 ± 14 spikes/s | 142 ± 25 spikes/s | 115 ± 44 spikes/s | 33.8 ± 19 spikes/s | 5.56 ± 14 spikes/s | 153 ± 42 spikes/s | 27 ± 7.3 spikes/s | 2 ± 5.9 spikes/s | -3.33 ± 5 spikes/s |
| CCCCN=C=S [butyl isothiocyanate] |  |  |  |  | 124 ± 14 spikes/s | 42.3 ± 22 spikes/s | 10 ± 14 spikes/s | 0.667 ± 9.1 spikes/s | 146 ± 29 spikes/s | 65.7 ± 36 spikes/s | 21.7 ± 10 spikes/s | -4 ± 10 spikes/s |  |  |  |  |  |  |  |  |
| CCCC(=O)OCC [ethyl butyrate] | 150 ± 38 spikes/s | 118 ± 43 spikes/s | 46 ± 21 spikes/s | 11 ± 22 spikes/s | 236 ± 60 spikes/s | 150 ± 70 spikes/s | 42.5 ± 25 spikes/s | 7.5 ± 3.5 spikes/s | 208 ± 60 spikes/s | 170 ± 59 spikes/s | 52.8 ± 54 spikes/s | 2 ± 7.4 spikes/s | 142 ± 26 spikes/s | 135 ± 24 spikes/s | 111 ± 39 spikes/s | 20.2 ± 19 spikes/s | 211 ± 10 spikes/s | 209 ± 12 spikes/s | 76.3 ± 41 spikes/s | 12.9 ± 4.5 spikes/s |
| CC(C)CN=C=S [isobutyl isothiocyanate] |  |  |  |  | 164 ± 20 spikes/s | 84.7 ± 14 spikes/s | 17.3 ± 5.9 spikes/s | 2 ± 5.8 spikes/s | 179 ± 22 spikes/s | 93 ± 16 spikes/s | 23.3 ± 7.5 spikes/s | 5.67 ± 4.6 spikes/s |  |  |  |  |  |  |  |  |
| CCC(C)N=C=S (centres undefined) [sec-butyl isothiocyanate] |  |  |  |  | 72.7 ± 9.3 spikes/s | 13.3 ± 9.4 spikes/s | -0.667 ± 7.1 spikes/s | 0.667 ± 4.8 spikes/s | 76.6 ± 22 spikes/s | 19.7 ± 11 spikes/s | 3.14 ± 6.4 spikes/s | -2.57 ± 5.9 spikes/s |  |  |  |  |  |  |  |  |
| CCC/C=C/C=O [trans-2-hexenal] | 130 ± 48 spikes/s | 55.7 ± 31 spikes/s | 9 ± 11 spikes/s | 2.67 ± 11 spikes/s | 187 ± 11 spikes/s | 156 ± 23 spikes/s | 72 ± 19 spikes/s | 26.7 ± 4.8 spikes/s | 169 ± 30 spikes/s | 159 ± 33 spikes/s | 136 ± 33 spikes/s | 58.6 ± 19 spikes/s | 145 ± 31 spikes/s | 119 ± 40 spikes/s | 26.4 ± 24 spikes/s | 5.78 ± 13 spikes/s | 121 ± 35 spikes/s | 34.7 ± 14 spikes/s | 5 ± 3.5 spikes/s | -3 ± 6.4 spikes/s |
| CCC1CCC(=O)O1 (centres undefined) [γ-hexalactone] | 163 ± 14 spikes/s | 128 ± 14 spikes/s | 53 ± 17 spikes/s | 43.7 ± 11 spikes/s | 186 ± 42 spikes/s | 93.7 ± 28 spikes/s | 21.3 ± 13 spikes/s | -2 ± 9.8 spikes/s | 182 ± 37 spikes/s | 42.6 ± 26 spikes/s | 3.14 ± 9.9 spikes/s | -3.43 ± 8 spikes/s | 152 ± 15 spikes/s | 98.7 ± 50 spikes/s | 34.3 ± 35 spikes/s | 11.3 ± 15 spikes/s | 286 ± 56 spikes/s | 217 ± 84 spikes/s | 33 ± 18 spikes/s | 22.7 ± 15 spikes/s |
